Laboratory results: patent US20060052356A1, “Pharmacological methods to modulate oxygen consumption” (priority 2004, published 2006)

How the values were obtained:
Sprague Dawley rats = assay: Toxicity and mortality in anesthetized rats given protein synthesis inhibitors (Example 3)
protein synthesis = assay: 35S-methionine incorporation into tissue protein after i.v. protein synthesis inhibitor in anesthetized rats (Example 3); assay type: in vivo, Sprague Dawley rats

For `C[C@H]1c2cccc(O)c2C(=O)C2=C(O)[C@]3(O)C(=O)C(C(N)=O)=C(O)[C@@H](N(C)C)[C@@H]3[C@@H](O)[C@@H]21` [Doxycycline], which mortality (Sprague Dawley rats; at doses <1/3 of LD50) is on record?
Its mortality is roughly 66%.

With `O=c1c(-c2ccc(O)cc2)coc2cc(O)cc(O)c12` [Genistein] as the compound, how does the “inhibition of protein synthesis (in words)” value (“inhibition” for short) (protein synthesis; single agents, intravenous) read?
The value was “poor inhibitor”.

What about the toxicity (Sprague Dawley rats; rat, in vivo) of the same compound?
Its toxicity is “toxicity at low doses”.

How did the “inhibition” value (protein synthesis; rat, in vivo, iv) turn out when `COc1ccc(C[C@H]2NC[C@H](O)[C@H]2OC(C)=O)cc1` [anisomycin] was run?
Its value is “substantial inhibition”.

With `COc1ccc(C[C@H](N)C(=O)N[C@H]2[C@@H](O)[C@H](n3cnc4c(N(C)C)ncnc43)O[C@@H]2CO)cc1` [puromycin] as the compound, how does the “inhibition” value (protein synthesis; single agents, intravenous) read?
Its value is “substantial inhibition”.
